Consider 35 compounds from a melting point compilation (Tetko et al.; mined from patent text by program, amines drawn as free bases though some values may be those of a salt).

As a reminder, the melting point is the temperature of the solid-liquid transition. `CC(=O)Nc1c(C#N)c(Cl)c(C#N)n1C` showed a melting point of 180 to 182 °C.
Then `CCOCc1nc2c(N)nc3ccccc3c2n1CCCCC(=O)N1CCOCC1`, with 128 to 129 °C; and `C[C@]12C[C@H](c3ccc(OCCCCCCCl)cc3)[C@@H]3c4ccc(O)cc4CC[C@H]3[C@@H]1CC[C@@H]2O`, with 176 °C; and `Cc1ccc(C(=S)c2cccc3c2NC(=O)C3)cc1`, with 167 to 169 °C.
In turn, `CC(C)(NC(=O)C(CS)Cc1ccccc1)C(=O)O` (stereo not given) displayed a melting point of 175 to 176 °C.
`Cc1ccc(Nc2ccnc(-n3nc(C)cc3C)n2)cc1`: the melting point was in the range of 52 to 55.6 °C.
For `CCOC(=O)/C=C1\CCOc2ccc([N+](=O)[O-])cc21`, the melting point was 135 °C.
As to `O=C(O)COc1c(I)cc(C(=O)c2c(Cc3ccccc3)oc3ccccc23)cc1I`, the melting point lay in the range of 144 to 146 °C.
Then `CCCCCCCCCCCCNC1=NC(C)(C)N=C(NCc2ccc(S(N)(=O)=O)cc2)N1`, with 188 to 191 °C.
The compound `CCOC(=O)CCC1CCCC2CCC(=O)NC21` (stereo not given) gave a melting point of 45 to 50 °C.
The value for `CC(C)(C)NC(=O)c1nn(-c2ccc(F)cc2)c2c1C1CCC2CC1` was 190 to 193 °C; that for `CC1CC(=O)c2cc([N+](=O)[O-])ccc2O1` (stereo not given) was 144 to 145 °C; that for `COc1ccccc1NC(=O)Nc1nc(Nc2ccccc2-c2ccccc2)nc(N2CCCCC2C(=O)O)n1` (stereo not given) was 150 to 154 °C.
`Cn1ncc(C23CCCN(CC2)C3)n1` (stereo not given) yielded a melting point of 65 to 70 °C.
The value for `CC(C)Oc1ccc(CCCCOc2cc(CCC(=O)O)n(-c3ccccc3)n2)c(Oc2ncc(C(F)(F)F)cc2Cl)c1` was 75 to 77 °C; that for `CCc1cn(C2CC(O)C(CS(=O)(=O)Cc3ccccc3)O2)c(=O)[nH]c1=O` (stereo not given) was 232 to 233 °C.
Take `CC(C)(CO)NS(=O)(=O)c1cc(NC(=O)c2cnn3c(C(F)(F)F)cc(-c4ccc(C(F)(F)F)c(Cl)c4)nc23)c(Cl)s1`: the melting point was determined as 254 °C.
As for `O=C(c1ccc(-c2ccccc2)cc1)c1ccc2n1Cc1ccccc1N(C(=O)COc1ccc(Cl)cc1)C2`, the melting point lay within 155 to 157 °C.
The value for `COc1ccc(-c2nc(N)sc2CCC2CCCCC2)c(OC)c1` was 122 °C; that for `O=C(O)CCCC=C1CCCCCCCCCCC1` was 70 to 72 °C; that for `CC12CC3(C)CC(CO)(C1)CC(CO)(C2)C3` was 158 to 161 °C.
`O=C(Nc1nc2ccc(OCc3c(Cl)cccc3Cl)cc2[nH]1)C1CC1`: the melting point was 133 to 135 °C.
Then `CCCc1cn(CC(=O)O)nc1OCCCc1cn(-c2ccc(C(F)(F)F)cn2)nc1OCC`, with 134 to 135 °C.
`Cc1ccc2c(O)c(CS(C)(=O)=O)cnc2c1`: the melting point is 285 to 290 °C.
With `Cc1cn2c(n1)-c1ccccc1Nc1ccccc1-2`, the melting point lay in the range of 232 to 236 °C.
Then `Cc1cc2c3c(c1)c(=O)c(C(=O)O)cn3C1CCCCC21` (stereo not given), with 188 to 190 °C; and `O=C(C=Cc1ccc(Oc2ccccc2)cc1)c1ccc(C2CCCCC2)cc1`, with 161 °C; and `CC(O)C(NC(=O)OCc1ccccc1)C(=O)NN` (stereo not given), with 135 °C.
The value for `O=C(O)C1([N+](=O)[O-])C(c2ccc([N+](=O)[O-])cc2)N=C2C=CC=CN21` (stereo not given) was more than 300 °C; that for `CC1(C)NC(=O)N(CC(CS(=O)(=O)c2ccc(-c3ccc(Cl)cc3)cc2)C(=O)O)C1=O` (stereo not given) was 242 to 245 °C; that for `COC(=O)c1ccc(CN2C(=O)C3(COc4cc5c(cc43)OCCO5)c3ccccc32)o1` (stereo not given) was 88 to 92 °C.
Then `C=CCNc1nc(SC)nc2cc(OC)c(OC)cc12`, with 122 to 124 °C; and `Cc1cccc(C)c1/N=C1\SCC(=O)N1N`, with 149 to 152 °C.
On to `CCC(CC)Nc1cc(C)nc(Cl)c1N`, for which the melting point lay in the range of 165 to 166 °C.
For `CCOC(=O)C(=CNc1cc(C)nc(-c2ccncc2)n1)C(=O)OCC`, the melting point lay within 169 to 171 °C.
